From patent publication US20120077957A1, “Lactam-Bridged Melanocortin Receptor-Specific Peptides” (PALATIN TECHNOLOGIES, INC., priority 2009, published 2012)
Read-outs that look alike come from different tables or passages of the source. Bridge positions count the residues as written; N and C are the ends. Square brackets hold non-standard residues; d marks the D form. Peptide text beside a SMILES is read from it. * marks the point of attachment. Orn = NCCC[C@H](N)C(=O)O; Bn = c1ccc(C*)cc1

Tests used:
human MC4-R [1] = target: T1, human MC4-R (Homo sapiens, UniProt P32245); experiment: cAMP functional assay in HEK-293 T-REx cells expressing human MC4-R, induced with doxycycline 0.1 ng/mL (low density); assay type: cell-based; conditions: doxycycline 0.1 ng/mL, averages of all comparable assays; for Emax: HEK293-T-REx, maximal cAMP stimulation, NDP-α-MSH = 100%, read-out: Emax; for EC50: human MC4-R cAMP assay, read-out: Ec50
T1 construct: expressed in transfected cells; host or cells: HEK293 T-REx (tetracycline-regulated, Invitrogen); cell line from Palatin Technologies with license from the University of Michigan
Text: A HEK293 cell line transfected with human MC4-R (from Palatin Technologies, US, with license from the University of Michigan) was used. The human MC4-R was introduced to HEK293 by using the T-REx™ System, Invitrogen. The T-REx™ System employs a tetracycline-regulated mammalian expression system that uses regulatory elements from the E. coli Tn10-encoded tetracycline (Tet) resistance operon. By use of the T-REx™ System, expression of the gene of interest, the human MC4-R gene, is repressed in the absence of tetracycline or doxycycline and induced in the presence of tetracycline or doxycycline (see T-REx™ System Manual, published by Invitrogen).
Cells were then counted and volume was adjusted to 5×10^4 cells per 200 μL.
The cells were then dispensed into 96-well plates (BD 353916) in 198 μL (about 5×10^4) cells/well and incubated for 10 minutes at 37° C. The compound to be tested was diluted with DMSO to a final concentration of 1 mM. Serial dilution was prepared in polypropylene removable 12-well library tube strips (VWR cat #83009-682). 120 μL of the 1 mM compound stock was pipetted in the second column on the plate.
2 μL of the standard, [Nle^4, D-Phe^7]alpha-Melanocyte Stimulating Hormone (NDP-α-MSH), or compound was added to the 96-well plate using the Janus robotic system. All assay samples were run in duplicate (i.e. each sample was in two low dox and two high dox plates, respectively). The plates were gently shaken and incubated for 15 minutes at 37° C. The reaction was stopped by adding 15 μL of lysis buffer per well and the plates were shakened for 30 minutes at room temperature.
Agonist stimulation of the MC4-R activates adenylate cyclase, which is an enzyme that catalyses the formation 3′,5′-cyclic adenosine monophosphate (cAMP) from adenosine triphosphate (ATP). […] Fluoresence ratios were then calculated as described in the CisBio HTRF kit, with GraphPad Prism software used to plot the change in fluorescence percent values versus cAMP concentration using the variable slope dose response curve and, based on calculated cAMP concentrations, to determine EC50 and Emax values. […]

human MC4-R [2] = target: T1, human MC4-R; experiment: Competitive inhibition binding assay with [I125]-NDP-α-MSH or Eu-NDP-α-MSH, membranes of HEK-293 cells expressing recombinant hMC4-R
Procedure: A competitive inhibition binding assay was performed using membrane homogenates prepared from HEK-293 cells that express recombinant hMC4-R, hMC3-R, or hMC5-R, and from B-16 mouse melanoma cells (containing endogenous MC1-R). In some instances, HEK-293 cells that express recombinant hMC1-R were employed. In the examples that follow, all MC3-R, MC4-R and MC5-R values are for human recombinant receptors. […] After incubation for 60 minutes at 37° C., the assay mixture was filtered and the membranes washed three times with ice-cold buffer. Filters were dried and counted in a gamma counter for bound radioactivity. […] Maximal specific binding (100%) was defined as the difference in radioactivity (cpm) bound to cell membranes in the absence and presence of 1 μM NDP-α-MSH. […] Ki values for test peptides of the present invention were determined using Graph-Pad Prism® curve-fitting software.
Alternatively, a competitive inhibition binding assay was performed employing Eu-NDP-α-MSH (PerkinElmer Life Sciences catalog No. AD0225) with determination by time-resolved fluorometry (TRF) of the lanthanide chelate. […] After incubation for 90 minutes at 37° C., the reaction was stopped by filtration over AcroWell 96-well filter plates (Pall Life Sciences). The filter plates were washed 4 times with 200 μL of ice-cold phosphate-buffered saline. DELFIA Enhancement solution (PerkinElmer Life Sciences) was added to each well. […] Each assay was conducted in duplicate and mean values were utilized. Ki values were determined by curve-fitting with Graph-Pad Prism® software using a one-site fixed-slope competition binding model.

[3] = human MC4-R, averages of all comparable assays, read-out: Ki

T1 sequence (P32245 whole entry): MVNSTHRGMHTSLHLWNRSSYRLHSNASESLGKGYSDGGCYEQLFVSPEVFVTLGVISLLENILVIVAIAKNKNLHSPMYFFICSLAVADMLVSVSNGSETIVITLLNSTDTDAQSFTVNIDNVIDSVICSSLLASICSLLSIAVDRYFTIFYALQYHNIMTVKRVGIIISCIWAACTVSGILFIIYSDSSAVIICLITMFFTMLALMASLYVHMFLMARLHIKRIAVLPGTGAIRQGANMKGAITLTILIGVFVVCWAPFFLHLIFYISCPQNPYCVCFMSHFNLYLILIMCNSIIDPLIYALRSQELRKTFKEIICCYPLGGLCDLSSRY

Emax (human MC4-R [1])	Ki (human MC4-R [2]; [3])	EC50 (human MC4-R [1])	SMILES	Ki (human MC4-R [2])
29%	7 nM		CC(=O)N[C@@H](CCCNC(=N)N)C(=O)N[C@H]1CC(=O)NCCCC[C@@H](C(N)=O)NC(=O)[C@H](Cc2c[nH]c3ccccc23)NC(=O)[C@H](CCCNC(=N)N)NC(=O)[C@@H](Cc2ccccc2)NC(=O)[C@H](CCS(C)(=O)=O)NC1=O [reference compound]	
90%	7 nM	3 nM	CC(=O)NCCC[C@@H]1NC(=O)[C@@H](NC(=O)[C@H](CCCNC(=N)N)NC(C)=O)CCC(=O)NCCC[C@@H](C(N)=O)NC(=O)[C@H](Cc2c[nH]c3ccccc23)NC(=O)[C@H](CCCNC(=N)N)NC(=O)[C@@H](Cc2ccccc2)NC1=O [No. 33, Ac-Arg-cyclo(Glu-Orn(Acetyl)-D-Phe-Arg-Trp-Orn)-NH2]	
50%	5 nM	3 nM	CC(=O)N[C@@H](CCCNC(=N)N)C(=O)N[C@H]1CCCNC(=O)CC[C@@H](C(=O)O)NC(=O)[C@H](Cc2c[nH]c3ccccc23)NC(=O)[C@H](CCCNC(=N)N)NC(=O)[C@@H](Cc2ccccc2)NC(=O)[C@H](COCc2ccccc2)NC1=O [No. 48, Ac-Arg-cyclo(Orn-Ser(Bzl)-D-Phe-Arg-Trp-Glu)-OH] (Ac-R[Orn]S(Bn)[dF]RWE-OH; lactam 2-7)	
	9 nM	5 nM	CC(=O)N[C@@H](CCCNC(=N)N)C(=O)N[C@H]1CC(=O)NCCCC[C@@H](C(=O)O)NC(=O)[C@H](Cc2c[nH]c3ccccc23)NC(=O)[C@H](CCCNC(=N)N)NC(=O)[C@@H](Cc2ccccc2)NC(=O)[C@H](COCc2ccccc2)NC1=O [reference compound]	
54%	5 nM	6 nM	CC(=O)N[C@@H](CCCNC(=N)N)C(=O)N[C@H]1CCCNC(=O)CC[C@@H](C(N)=O)NC(=O)[C@H](Cc2c[nH]c3ccccc23)NC(=O)[C@H](CCCNC(=N)N)NC(=O)[C@@H](Cc2ccccc2)NC(=O)[C@@H]2CCCN2C1=O [No. 47, Ac-Arg-cyclo(Orn-Pro-D-Phe-Arg-Trp-Glu)-NH2] (Ac-R[Orn]P[dF]RWE-NH2; lactam 2-7)	
62%	573 nM		CC(=O)NCCC[C@@H]1NC(=O)[C@@H](NC(=O)[C@H](CCCNC(=N)N)NC(C)=O)CC(=O)NCCCC[C@@H](C(N)=O)NC(=O)[C@H](Cc2c[nH]c3ccccc23)NC(=O)[C@H](CCCNC(=N)N)NC(=O)[C@@H](Cc2ccccc2)NC1=O [reference compound]	
88%	12 nM	0.6 nM	CC(=O)N[C@@H](CCCNC(=N)N)C(=O)N[C@H]1CCCNC(=O)CC[C@@H](C(=O)O)NC(=O)[C@H](Cc2c[nH]c3ccccc23)NC(=O)[C@H](CCCNC(=N)N)NC(=O)[C@@H](Cc2ccccc2)NC(=O)[C@H](Cc2c[nH]cn2)NC1=O [No. 37, Ac-Arg-cyclo(Orn-His-D-Phe-Arg-Trp-Glu)-OH] (Ac-R[Orn]H[dF]RWE-OH; lactam 2-7)	
52%	19 nM	7 nM	CC(=O)N[C@@H](CCCNC(=N)N)C(=O)N[C@H]1CCCNC(=O)CC[C@@H](C(N)=O)NC(=O)[C@H](Cc2c[nH]c3ccccc23)NC(=O)[C@H](CCCNC(=N)N)NC(=O)[C@@H](Cc2ccccc2)NC(=O)[C@H](C)NC1=O [No. 41, Ac-Arg-cyclo(Orn-Ala-D-Phe-Arg-Trp-Glu)-NH2] (Ac-R[Orn]A[dF]RWE-NH2; lactam 2-7)	
55%	6 nM	2 nM	CC(=O)N[C@@H](CCCNC(=N)N)C(=O)N[C@H]1CCC(=O)NCCC[C@@H](C(=O)O)NC(=O)[C@H](Cc2c[nH]c3ccccc23)NC(=O)[C@H](CCCNC(=N)N)NC(=O)[C@@H](Cc2ccccc2)NC(=O)[C@H](COCc2ccccc2)NC1=O [No. 17, Ac-Arg-cyclo(Glu-Ser(Bzl)-D-Phe-Arg-Trp-Orn)-OH]	
85%	0.2 nM	0.2 nM	CCCC[C@H](NC(C)=O)C(=O)N[C@H]1CCCNC(=O)CC[C@@H](C(N)=O)NC(=O)[C@H](Cc2c[nH]c3ccccc23)NC(=O)[C@H](CCCNC(=N)N)NC(=O)[C@@H](Cc2ccccc2)NC(=O)[C@H](Cc2c[nH]cn2)NC1=O [No. 36, Ac-Nle-cyclo(Orn-His-D-Phe-Arg-Trp-Glu)-NH2]	
71%	8 nM	5 nM	CC(=O)N[C@@H](CCCNC(=N)N)C(=O)N[C@H]1CCC(=O)NCCC[C@@H](C(N)=O)NC(=O)[C@H](Cc2c[nH]c3ccccc23)NC(=O)[C@H](CCCNC(=N)N)NC(=O)[C@@H](Cc2ccccc2)NC(=O)[C@H](CCS(C)(=O)=O)NC1=O [No. 13, Ac-Arg-cyclo(Glu-Met(O2)-D-Phe-Arg-Trp-Orn)-NH2]	
83%	1 nM	0.2 nM	CC(=O)N[C@@H](CCCNC(=N)N)C(=O)N[C@H]1CCC(=O)NCCC[C@@H](C(N)=O)NC(=O)[C@H](Cc2c[nH]c3ccccc23)NC(=O)[C@H](CCCNC(=N)N)NC(=O)[C@@H](Cc2ccccc2)NC(=O)[C@H](Cc2c[nH]cn2)NC1=O [No. 4, Ac-Arg-cyclo(Glu-His-D-Phe-Arg-Trp-Orn)-NH2] (Ac-REH[dF]RW[Orn]-NH2; lactam 2-7)	
61%	5 nM	8 nM	CC(=O)N[C@@H](CCCNC(=N)N)C(=O)N[C@H]1CC(=O)NCCCC[C@@H](C(N)=O)NC(=O)[C@H](Cc2c[nH]c3ccccc23)NC(=O)[C@H](CCCNC(=N)N)NC(=O)[C@@H](Cc2ccccc2)NC(=O)[C@@H]2C[C@@H](N)CN2C1=O [reference compound]	
96%	3 nM	6 nM	CC(=O)N[C@@H](CCCNC(=N)N)C(=O)N[C@H]1CCC(=O)NCCC[C@@H](C(N)=O)NC(=O)[C@H](Cc2c[nH]c3ccccc23)NC(=O)[C@H](CCCNC(=N)N)NC(=O)[C@@H](Cc2ccccc2)NC(=O)[C@H](CCC(N)=O)NC1=O [No. 12, Ac-Arg-cyclo(Glu-Gln-D-Phe-Arg-Trp-Orn)-NH2]	
84%	1 nM	1 nM	CC(=O)N[C@@H](CCCNC(=N)N)C(=O)N[C@H]1CCCNC(=O)CC[C@@H](C(N)=O)NC(=O)[C@H](Cc2c[nH]c3ccccc23)NC(=O)[C@H](CCCNC(=N)N)NC(=O)[C@@H](Cc2ccccc2)NC(=O)[C@H](Cc2c[nH]cn2)NC1=O [No. 38, Ac-Arg-cyclo(Orn-His-D-Phe-Arg-Trp-Glu)-NH2] (Ac-R[Orn]H[dF]RWE-NH2; lactam 2-7)	
95%	9 nM	0.4 nM	CC(=O)N[C@@H](CCCNC(=N)N)C(=O)N[C@H]1CCC(=O)NCCC[C@@H](C(N)=O)NC(=O)[C@H](Cc2c[nH]c3ccccc23)NC(=O)[C@H](CCCNC(=N)N)NC(=O)[C@@H](Cc2ccccc2)NC(=O)[C@H](CCCN)NC1=O [No. 8, Ac-Arg-cyclo(GIu-Orn-D-Phe-Arg-Trp-Orn)-NH2]	

SMILES	Emax (human MC4-R [1])	Ki (human MC4-R [2]; [3])	EC50 (human MC4-R [1])	Ki (human MC4-R [2])
CC(=O)N[C@@H](CCCNC(=N)N)C(=O)N[C@H]1CC(=O)NCCCC[C@@H](C(N)=O)NC(=O)[C@H](Cc2c[nH]c3ccccc23)NC(=O)[C@H](CCCNC(=N)N)NC(=O)[C@@H](Cc2ccccc2)NC(=O)[C@H](CC(N)=O)NC1=O [reference compound] (Ac-RDN[dF]RWK-NH2; lactam 2-7)	91%		42 nM	32 nM
CC(=O)N[C@@H](CCCCN)C(=O)N[C@H]1CCCNC(=O)CC[C@@H](C(N)=O)NC(=O)[C@H](Cc2c[nH]c3ccccc23)NC(=O)[C@H](CCCNC(=N)N)NC(=O)[C@@H](Cc2ccccc2)NC(=O)[C@H](Cc2c[nH]cn2)NC1=O [No. 40, Ac-Lys-cyclo(Orn-His-D-Phe-Arg-Trp-Glu)-NH2] (Ac-K[Orn]H[dF]RWE-NH2; lactam 2-7)	114%		0.2 nM	3 nM
